Measurements taken from PMC6651387, “Fine-Tuning the Activation Mode of an 1,3-Indandione-Based Ruthenium(II)-Cymene Half-Sandwich Complex by Variation of Its Leaving Group” (Molecules, 2019).
Several values for one entry are separate records, joined by “and”; a condition that tells them apart may be missing. Identical values can stand only once.

Experiments:
[1] = tested on: CH1/PA-1 (ovarian teratocarcinoma) cells; experiment: MTT antiproliferative assay, CH1/PA-1; assay type: cell-based, human; conditions: exposure time 96 h, means ± standard deviations
Protocol: CH1/PA-1 (ovarian teratocarcinoma) cells were a generous gift from Lloyd R. Kelland (CRC Centre for Cancer Therapeutics, Institute of Cancer Research, Sutton, UK). A549 (non-small cell lung cancer), SW480, and HCT116 (both colon cancer) cells were kindly provided by the Institute of Cancer Research, Department of Medicine I, Medical University of Vienna, Austria. All cell lines were grown as monolayer cultures in Eagle’s MEM supplemented with L-glutamine (4 mM), sodium pyruvate (1 mM) and 1% (v/v) non-essential amino acid solution (all from Sigma-Aldrich) and 10% (v/v) heat-inactivated fetal calf serum (FCS, BioWest) in 75-cm^2 flasks (Starlab) at 37 °C under a humidified atmosphere containing 5% CO2 in air.
Antiproliferative activity of the compounds was determined with the colorimetric MTT assay (MTT = 3-(4,5-dimethyl-2-thiazolyl)-2,5-diphenyl-2H-tetrazolium bromide). CH1/PA-1, HCT116, SW480, and A549 cells with cell numbers of 1 × 10^3, 1.5 × 10^3, 2 × 10^3, and 3 × 10^3, respectively, were seeded in 100 μL per well into 96-well microculture plates (Starlab). After 24 h, test compounds were dissolved in DMSO (Fisher Scientific), serially diluted in complete MEM not to exceed a final DMSO content of 0.5% (v/v) and added in 100 μL per well. After 96 h, the drug-containing medium was replaced with 100 µL of RPMI 1640/MTT mixture, i. e., 6 parts of RPMI 1640 medium (Sigma-Aldrich; supplemented with 10% heat-inactivated fetal bovine serum and 4 mM L-glutamine), 1 part of MTT solution in phosphate-buffered saline (5 mg/mL; both from Sigma-Aldrich). After incubation for 4 h, the MTT-containing medium was replaced with 150 μL DMSO per well to dissolve the formazan product formed by viable cells. Optical densities at 550 nm (and at the reference wavelength of 690 nm) were measured with a microplate reader (ELx808, Bio-Tek). The IC50 values relative to untreated controls were interpolated from concentration–effect curves. At least three independent experiments were performed, each with triplicates per concentration level.

[2] = pH-dependent stability by UV-VIS spectroscopy; assay type: physicochemical; conditions: for precipitation at pH 7.4: 40 µM, PBS, 1% DMSO, loss of absorbance without change in spectrum
Source text: The stability under physiological conditions is a vital part of the process of developing a new drug. Additionally, N-donor leaving groups equip piano-stool complexes with an elegant pH-switch. Theoretically, they can be protonated at lower pH values, as found in the extracellular matrix of the tumor tissue, and are therefore cleaved off. The resulting aqua complex is highly reactive and able to interact with biological targets. To put this theory to the test, the stability of complexes 1a–g was investigated at different pH values, i.e., 5.5, 6.5, 7.4, and 8.5. Spectra were recorded over a period of 24 h, with 40 µM solutions (1% DMSO in water) in the range of 250–700 nm. The chosen pH values represented the physiologically relevant conditions; a pH value of 8.5 is the highest pH found in the human body (in the duodenum), a pH value of 7.4 is the average pH of human blood, and a pH value of 6.5 is the pH found in the extracellular matrix of solid tumors.
Stability measurements were performed on a Lambda 35 UV/VIS spectrometer (Perkin Elmer, Boston, MA, USA). Samples of complexes 1a–g: 40 µM in PBS (pH 7.4) and isotonic saline phosphate buffer with 0.9% sodium chloride (pH 8.5), diluted isotonic acetic acid (pH 5.5), and acetate buffer (pH 6.5) with 1% DMSO. UV-VIS spectra were recorded hourly for 24 h at 37 °C. Temperature control was maintained by a PTP-6 Peltier System (Perkin Elmer, Boston, MA, USA).

[3] = Solubility in minimal essential medium (MEM, 1% DMSO)
Protocol: Melting points were determined with a Büchi Melting Point M-560. The solubility was determined by dissolving the compound in DMSO and subsequent dilution to a final concentration of 1% DMSO/MEM solution (minimal essential medium) and 1% DMSO/MSP solution (medium with serum proteins). The highest concentrated dilution, where no precipitation of the compound occurred, was the determined solubility. The NMR spectra were recorded at 25 °C using a Bruker FT-NMR spectrometer Avance III^TM 500 MHz. ^1H-NMR spectra were measured at 500.10 MHz and ^13C-NMR spectra were recorded at 125.75 MHz in deuterated methanol (CD3OD). 2D-NMR spectra were measured using a gradient-enhanced mode. CHN elemental analyses were performed with a Eurovector EA3000 Elemental Analyzer in the microanalytical laboratory of the University of Vienna. Single crystals of complexes 1b–1f suitable for X-ray diffraction analysis were grown by precipitation from DCM/Et2O at 4 °C. The X-ray intensity data were measured on Bruker D8 Venture or X8 APEX II diffractometer equipped with multilayer monochromators, Mo K/α INCOATEC microfocus sealed tubes and Kryoflex cooling devices (Bruker, Karlsruhe, Germany). The structures were solved by direct methods and refined by full-matrix least-squares techniques. Non-hydrogen atoms were refined with anisotropic displacement parameters. Hydrogen atoms were inserted at calculated positions and refined with a riding model separately as rotating groups. The following software was used: Bruker SAINT software package using a narrow-frame algorithm for frame integration, SADABS [33] for absorption correction, OLEX2 [34] for structure solution, refinement, molecular diagrams and graphical user-interface, Shelxle for refinement and graphical user-interface, SHELXS-2013 [36] for structure solution, SHELXL-2013 [37] for refinement, and Platon for symmetry check. Electronspray ionization mass spectra were recorded on a Bruker AmaZon SL ion trap mass spectrometer (Bruker Daltonics GmbH, Hamburg, Germany).

Row | Compound | IC50 [1] [µM] | hydrolysis in aqueous systems ([2]; aquation to the aqua complex) | solubility [3] | precipitation at pH 7.4 [2]
1 | Cc1ccc(C(C)C)cc1.O=C1C2=C(NCc3ccccc3)[O][Ru-]([Cl])[O+]=C2c2ccccc21 [1a] | 12.5 ± 4.4 | hydrolyzed quickly to the more reactive aqua complex |  | 
2 | Cc1ccc(C(C)C)cc1.Cn1ccnc1.F[P-](F)(F)(F)(F)F.O=C1C(=C(NCc2ccccc2)[O][Ru+])C(=O)c2ccccc21 [1b] | 16.2 ± 2.6 |  | 0.30 mg/mL and 0.40 mM | 
3 | Cc1ccc(C(C)C)cc1.F[P-](F)(F)(F)(F)F.O=C1C2=C(NCc3ccccc3)[O][Ru-]([n+]3ccc[nH]3)[O+]=C2c2ccccc21 [1c] | 11.5 ± 2 |  | 0.28 mg/mL and 0.39 mM | 
4 | Cc1ccc(C(C)C)cc1.F[P-](F)(F)(F)(F)F.O=C1C2=C(NCc3ccccc3)[O][Ru-]([n+]3c[nH]c4ccccc43)[O+]=C2c2ccccc21 [1d] | 10.6 ± 1.8 |  | 0.29 mg/mL and 0.37 mM | precipitated to some extent
5 | Cc1ccc(C(C)C)cc1.F[P-](F)(F)(F)(F)F.O=C1C2=C(NCc3ccccc3)[O][Ru-]([n+]3cc4ccccc4[nH]3)[O+]=C2c2ccccc21 [1e] | 11 ± 3 |  | 0.06 mg/mL and 0.08 mM | precipitated to some extent
6 | Cc1ccc(C(C)C)cc1.F[P-](F)(F)(F)(F)F.O=C1C2=C(NCc3ccccc3)[O][Ru-]([NH+]3CCOCC3)[O+]=C2c2ccccc21 [1g] | 12.2 ± 2.7 |  | 0.22 mg/mL and 0.29 mM | 
